Results on six compounds are retold here after PubChem BioAssay (NCI).

“And” between values parts separate entries of the source, which are not always exact repeats. Equal values may be shown once.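 Protocol summary: plate cells (96-well), add compound at 5 concentrations, incubate 48 h, interpolate endpoints linearly. GI50: concentration for 50% inhibition of growth. TGI: concentration producing complete growth inhibition.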

Common to all, as to test: NCI anticancer screen, dose series, 48 h
For experiment [1], the system named is MCF7 breast.
The subject of experiment [2] is NCI-H460 lung.
For experiment [3], the system named is SF-539 CNS.
For experiment [4], the system named is A498 renal.
Experiment [5] concerns OVCAR-5 ovarian.
In experiment [6] the test system is UO-31 renal.
Experiment [7] has as its system IGROV1 ovarian.
Experiment [8] relates to TK-10 renal.
For experiment [9], the system named is EKVX NSCLC.
In experiment [10] the test system is OVCAR-3 ovarian.

`O=C(c1cccs1)c1nc2cc(Cl)ccc2[n+]([O-])c1C(F)(F)F`: the GI50 was 52.2 µM in experiment [1]; 91.9 µM in [2]; greater than 100 µM in experiment [3]; 92 µM in experiment [4]; greater than 100 µM in [5]; greater than 100 µM in [6]. The GI50 in experiment [7] is greater than 100 µM; in experiment [8] it was greater than 100 µM; in experiment [9], 51.8 µM; in [10] it was greater than 100 µM. Further, the TGI in experiment [1], in experiment [2], in experiment [3], in experiment [4], in experiment [5] and in experiment [6] was greater than 100 µM each time. In addition, the TGI in experiment [7], in [8], in [9] and in experiment [10] was greater than 100 µM in each case.
In the case of `COc1ncc(-c2ccc3nccc(C#CCN4CCN(S(C)(=O)=O)CC4)c3c2)cc1NS(=O)(=O)c1ccc(F)cc1F`, the GI50 in [1] was less than 0.01 µM; in experiment [2], 0.049 µM; in experiment [3], 0.0398 µM; in [4] it was 0.048 µM; in experiment [5], 0.0207 µM; in experiment [6], 0.0274 µM. Besides, the GI50 in experiment [7] was less than 0.01 µM; in [9] it was 0.146 µM; in [10] it was 0.0466 µM. In addition, the TGI in experiment [1] is 1.79 µM; in experiment [2] it was 4.71 µM; in [3], 0.272 µM; in [4], 0.309 µM; in experiment [5], 5.72 µM; in experiment [6], 3.73 µM. The TGI in experiment [7] was found to be 0.0333 µM; in experiment [9], 12.4 µM; in experiment [10] it was 0.982 µM.
With `C=C(CN1CCN(c2ccccc2C(F)(F)F)CC1)c1ccc(C(=O)Nc2ccccc2N)cc1`, the GI50 was 4.48 µM in experiment [1]; 5.59 µM in experiment [2]; 3.27 µM in [3]; 5.36 µM in [4]; 11.8 µM in experiment [5]; 1 µM in [6]. Also, the GI50 in [7] was 6.03 µM; in experiment [8], 4.63 µM; in [9] it was 6.7 µM; in experiment [10], 5.92 µM. The TGI in experiment [1] is 37.1 µM; in experiment [2], 43.6 µM; in experiment [3], 41.7 µM; in experiment [4] it was 31.8 µM; in [5], greater than 100 µM; in experiment [6], greater than 60.3 µM. The TGI was greater than 100 µM in [7], greater than 67.7 µM in [8], greater than 100 µM in experiment [9] and 38.3 µM in [10].
In the case of `COC(=O)[C@@H](C)C[C@H](Cc1ccccc1)NC(=O)c1csc([C@@H](C[C@H](C(C)C)N(C)C(=O)C2(NC(=O)[C@H]3CCCCN3C)CCC2)OC(C)=O)n1`, the GI50 in [1] was 0.000508 µM and 0.0025 µM; in experiment [2], 0.00549 µM and 0.0057 µM; in experiment [3], 0.00784 µM and 0.00441 µM; in [4], 0.0164 µM and 0.00548 µM; in experiment [5], 0.0786 µM and 0.0099 µM; in experiment [6], 0.734 µM and 0.157 µM. The GI50 is 0.000863 µM and 0.0025 µM in [7]; 0.000487 µM and 0.0025 µM in experiment [10]. The TGI is greater than 25 µM in experiment [1]; greater than 25 µM in experiment [2]; 0.0518 µM and 0.0137 µM in [3]; 0.0874 µM in experiment [4]; greater than 25 µM in [5]; greater than 25 µM in experiment [6]. Besides, the TGI in experiment [7] is greater than 25 µM; in [8] it was greater than 25 µM; in experiment [9], greater than 25 µM; in experiment [10], 0.0101 µM and 0.00672 µM.
Turning to `C/C(=N\O)c1cccc(Nc2cc(-c3ccccc3)nc3c(O)cccc23)c1`, the GI50 in [1] was 0.354 µM; in experiment [2], 2.49 µM; in experiment [3], 2.2 µM; in experiment [4], 3.31 µM; in [5], 12.5 µM; in experiment [6] it was 11.2 µM. Besides, the GI50 is 2.41 µM in experiment [7], 8.44 µM in experiment [8], 10.3 µM in experiment [9] and 1.1 µM in experiment [10]. For the same compound, the TGI was determined as 46.5 µM in experiment [1]; 17.2 µM in experiment [2]; 9.85 µM in [3]; 18.1 µM in experiment [4]; 32.2 µM in experiment [5]; 30.4 µM in experiment [6]. Also, the TGI is 18 µM in experiment [7], 47.7 µM in experiment [8], 56.7 µM in experiment [9] and 14.5 µM in experiment [10].
As to `O=C(Nc1ccc(I)cc1)c1cccc([N+](=O)[O-])c1O`, the GI50 was 2.76 µM in [1]; 3.86 µM in [2]; 4.85 µM in experiment [3]; 1.65 µM in [4]; 18.1 µM in experiment [5]; 2.02 µM in experiment [6]. Moreover, the GI50 was 6.15 µM in experiment [7], 3.56 µM in experiment [8], 2.59 µM in experiment [9] and 2.9 µM in experiment [10]. The TGI in experiment [1] was greater than 100 µM; in experiment [2] it was greater than 100 µM; in [3], greater than 100 µM; in experiment [4] it was 6.55 µM; in [5] it was greater than 100 µM; in experiment [6], 8.49 µM. Also, the TGI in experiment [7], in [8], in experiment [9] and in experiment [10] was greater than 100 µM throughout.
